Measurements as given in PubChem BioAssay (NCI).
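Protocol summary: plate cells (96-well), add compound at 5 concentrations, incubate 48 h, interpolate endpoints linearly. The concentration for 50% growth inhibition is given as GI50. TGI marks complete inhibition of growth.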

How the values were obtained:
Experiment in all cases: growth of human tumour cells (NCI), 48 h
[1] = tested on: SR leukemia
[2] = tested on: RXF 393 renal
[3] = tested on: SNB-19 CNS
[4] = tested on: MDA-MB-231 breast
[5] = tested on: MOLT-4 leukemia
[6] = tested on: HOP-92 NSCLC
[7] = tested on: HCC-2998 colon
[8] = tested on: SK-OV-3 ovarian
[9] = tested on: ACHN renal
[10] = tested on: CAKI-1 renal
[11] = tested on: PC-3 prostate
[12] = tested on: OVCAR-3 ovarian
[13] = tested on: HCT-15 colon
[14] = tested on: MALME-3M melanoma
[15] = tested on: 786-0 renal
[16] = tested on: K-562 leukemia
[17] = tested on: TK-10 renal
[18] = tested on: BT-549 breast
[19] = tested on: NCI-H522 lung
[20] = tested on: HS 578T breast
[21] = tested on: SK-MEL-28 melanoma
[22] = tested on: A549 NSCLC
[23] = tested on: SW-620 colon
[24] = tested on: SNB-75 CNS
[25] = tested on: SF-268 CNS
[26] = tested on: NCI-H226 lung
[27] = tested on: HOP-62 NSCLC
[28] = tested on: NCI/ADR-RES ovarian
[29] = tested on: UACC-257 melanoma

CCN(CC)CCCCCCNc1cccc2cc(Br)cnc12
GI50 [1]: 3.04 µM | TGI [1]: 12.6 µM | GI50 [2]: 4.52 µM | TGI [2]: 15.1 µM | GI50 [3]: 5.77 µM | TGI [3]: 22.6 µM | GI50 [4]: 1.59 µM | TGI [4]: 4.64 µM | GI50 [5]: 3.06 µM | TGI [5]: 12.1 µM | GI50 [6]: 2.52 µM | TGI [6]: 9.44 µM | GI50 [7]: 3.84 µM | TGI [7]: 15.4 µM | GI50 [8]: 13.2 µM | TGI [8]: 26.8 µM | GI50 [9]: 4.98 µM | TGI [9]: 17.1 µM | GI50 [10]: 2.83 µM | TGI [10]: 12.4 µM | GI50 [11]: 3.6 µM | TGI [11]: 17 µM | GI50 [12]: 8.63 µM | TGI [12]: 24.8 µM | GI50 [13]: 2.95 µM | TGI [13]: 10.9 µM | GI50 [14]: 2.46 µM | TGI [14]: 5.13 µM | GI50 [15]: 3.39 µM | TGI [15]: 11.1 µM | GI50 [16]: 2.08 µM | TGI [16]: 5.59 µM | GI50 [17]: 1.81 µM | TGI [17]: 3.89 µM | GI50 [18]: 10.1 µM | TGI [18]: 22.2 µM | GI50 [19]: 1.88 µM | TGI [19]: 4.97 µM | GI50 [20]: 6.03 µM | TGI [20]: 28.5 µM | GI50 [21]: 2.82 µM | TGI [21]: 6.76 µM | GI50 [22]: 8.07 µM | TGI [22]: 22.6 µM | GI50 [23]: 3.41 µM | TGI [23]: 14.7 µM | GI50 [24]: 2.82 µM | TGI [24]: 9.17 µM | GI50 [25]: 10.9 µM | TGI [25]: 27.5 µM | GI50 [26]: 11.8 µM | TGI [26]: 27 µM | GI50 [27]: 10 µM | TGI [27]: 23.4 µM | GI50 [28]: 4.88 µM | TGI [28]: 20.3 µM | GI50 [29]: 3.28 µM | TGI [29]: 9.36 µM
